The compounds below were run against human orexin-2 receptor (Homo sapiens (Human), UniProt O43614) (assay: radioligand binding assay, hOX2 Bind). Details: membranes prepared from CHO cells expressing the OX2 receptor; read-out: hOX2 Bind hKi.
human orexin-2 receptor, sequence (O43614 whole entry): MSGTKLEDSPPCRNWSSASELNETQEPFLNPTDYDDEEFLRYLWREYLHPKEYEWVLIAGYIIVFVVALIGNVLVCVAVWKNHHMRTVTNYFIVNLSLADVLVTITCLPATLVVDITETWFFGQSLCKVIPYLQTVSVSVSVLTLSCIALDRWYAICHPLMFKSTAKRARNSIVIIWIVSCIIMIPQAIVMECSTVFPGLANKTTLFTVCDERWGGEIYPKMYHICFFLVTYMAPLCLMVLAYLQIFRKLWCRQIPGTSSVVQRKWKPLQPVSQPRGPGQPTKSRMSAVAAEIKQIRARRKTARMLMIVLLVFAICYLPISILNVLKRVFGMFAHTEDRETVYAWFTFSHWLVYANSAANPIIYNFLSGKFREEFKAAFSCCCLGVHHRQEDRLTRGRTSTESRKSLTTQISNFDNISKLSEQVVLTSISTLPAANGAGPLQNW
Procedure: The utility of the compounds in accordance with the present invention as orexin receptor OX1R and/or OX2R antagonists may be readily determined without undue experimentation by methodology well known in the art, including the “FLIPR Ca^2+ Flux Assay” (Okumura et al., Biochem. Biophys. Res. Comm. 280:976-981, 2001). In a typical experiment the OX1 and OX2 receptor antagonistic activity of the compounds of the present invention was determined in accordance with the following experimental method. For intracellular calcium measurements, Chinese hamster ovary (CHO) cells expressing the rat orexin-1 receptor or the human orexin-2 receptor, are grown in Iscove's modified DMEM containing 2 mM L-glutamine, […], 1% hypoxanthine-thymidine supplement, 100 U/ml penicillin, 100 μg/ml streptomycin and 10% heat-inactivated fetal calf serum (FCS). The cells are seeded at 20,000 cells/well into Becton-Dickinson black 384-well clear bottom sterile plates coated with poly-D-lysine. All reagents were from GIBCO-Invitrogen Corp. The seeded plates are incubated overnight at 37° C. and 5% CO2. […] Within the Fluorescent Imaging Plate Reader (FLIPR, Molecular Devices), test compounds are added to the plate in a volume of […] for 5 min and finally 25 μl of agonist is added. Fluorescence is measured for each well at 1 second intervals for 5 minutes and the height of each fluorescence peak is compared to the height of the fluorescence peak induced by 70 pM Ala-6,12 orexin-A with buffer in place of antagonist. […] Alternatively, compound potency can be assessed by a radioligand binding assay (described in Bergman et. al. Bioorg. Med. Chem. Lett. 2008, 18, 1425-1430) in which the inhibition constant (Ki) is determined in membranes prepared from CHO cells expressing either the OX1 or OX2 receptor. The intrinsic orexin receptor antagonist activity of a compound which may be used in the present invention may be determined by these assays. […]
With COc1ccc(CNC(=O)c2cc(-c3cncc(Br)c3)nc3onc(-c4ccccc4)c23)nc1OC [Example 1-8, 6-(5-bromopyridin-3-yl)-N-[(5,6-dimethoxypyridin-2-yl)methyl]-3-phenylisoxazolo[5,4-b] pyridine-4-carboxamide] the Ki was 3.8 nM.
COc1ccc(CNC(=O)c2cc(-c3cncc(C)c3)nc3onc(-c4ccccc4)c23)cc1OC [Example 1-12, N-(3,4-dimethoxybenzyl)-6-(5-methylpyridin-3-yl)-3-phenylisoxazolo[5,4-b]pyridine-4-carboxamide] showed a Ki of 10.8 nM.
With COc1cc(C)c(CNC(=O)c2cc(-c3cncc(C)c3)nc3onc(-c4cccs4)c23)nc1OC [Example 1-21, N-[(5,6-dimethoxy-3-methylpyridin-2-yl)methyl]-6-(5-methylpyridin-3-yl)-3-(thiophen-2-yl)isoxazolo[5,4-b]pyridine-4-carboxamide] the Ki was 0.7 nM.

Reference: US9242995B2, “Isoxazolopyridine orexin receptor antagonists” (MERCK SHARP & DOHME CORP., priority 2011, dated 2016)
